Among the data in US4540688A, “β-Lactam antibiotics” (Beecham Group p.l.c., priority 1982, dated 1985) are MIC values, retold here.

Assay type in all cases: cell-based
Experiment [1] relates to Ps. aeruginosa NCTC 10662. The experiment is described as follows: Antibacterial in vitro activity (MIC), Ps. aeruginosa NCTC 10662. Particulars: Pseudomonas aeruginosa.
A further experiment has as its system S. pyogenes CN10. The experiment is described as follows: Antibacterial in vitro activity (MIC), S. pyogenes CN10. Particulars: Streptococcus pyogenes.
A further experiment concerns E. coli JT425. As to the kind of experiment: Antibacterial in vitro activity (MIC), E. coli JT425. Particulars: Escherichia coli.
A further experiment relates to E. coli JT4. As to the kind of experiment: Antibacterial in vitro activity (MIC), E. coli JT4. Particulars: Escherichia coli.
Another experiment has as its system E. coli ESS. As to the kind of experiment: Antibacterial in vitro activity (MIC), E. coli ESS. Particulars: Escherichia coli.
Another experiment has as its system N. catarrhalis 1502. The experiment is described as follows: Antibacterial in vitro activity (MIC), N. catarrhalis 1502.
For a further experiment, the system named is Ps. aeruginosa Dalgleish. As to the kind of experiment: Antibacterial in vitro activity (MIC), Ps. aeruginosa Dalgleish. To be noted: Pseudomonas aeruginosa; Ps. aeruginosa Dalgleish 10^-2.
A further experiment deals with E. coli NCTC 10418. The experiment is described as follows: Antibacterial in vitro activity (MIC), E. coli NCTC 10418. Particulars: Escherichia coli, NCTC10418.
The subject of the next experiment is K. aerogenes A. The experiment is described as follows: Antibacterial in vitro activity (MIC), K. aerogenes A. To be noted: Klebsiella aerogenes.
A further experiment has as its system P. mirabilis C977. The experiment is described as follows: Antibacterial in vitro activity (MIC), P. mirabilis C977. To be noted: Proteus mirabilis.
The test system of the next experiment is E. cloacae N1. As to the kind of experiment: Antibacterial in vitro activity (MIC), E. cloacae N1. Particulars: Enterobacter cloacae.
The next experiment deals with P. rettgeri. The experiment is described as follows: Antibacterial in vitro activity (MIC), P. rettgeri. Particulars: Providencia rettgeri.
Another experiment deals with S. marcesens US32. The experiment is described as follows: Antibacterial in vitro activity (MIC), S. marcesens US32.

With `CCN1CCN(C(=O)N[C@@H](C(=O)N[C@@H]2C(=O)N3[C@@H](C(=O)O)CS[C@H]23)c2ccc(O)c(O)c2)C(=O)C1=O` [Example 3, Sodium 6,β[D-2-(4-ethyl-2,3-dioxopiperazine-1-carbonylamino)-2-(3,4-dihydroxyphenyl)]acetamidobisnorpenicillanate], the MIC in [1] (NCTC10662, Ps. aeruginosa NCTC 10662) amounted to 1000 µg/mL; in experiment [1] (NCTC10662, Ps. aeruginosa NCTC 10662 10^-2), 100 µg/mL; against S. pyogenes CN10, 500 µg/mL; with E. coli JT425, 50 µg/mL; against E. coli JT4, 1000 µg/mL; against E. coli ESS, 20 µg/mL. Besides, the MIC against N. catarrhalis 1502 came to 20 µg/mL; in the experiment with Ps. aeruginosa Dalgleish, 2500 µg/mL; in the experiment on E. coli NCTC 10418, 20 µg/mL; against K. aerogenes A, 50 µg/mL; in the experiment on P. mirabilis C977, 100 µg/mL; in the experiment on E. cloacae N1 it was 500 µg/mL. For the same compound, the MIC against P. rettgeri and against S. marcesens US32 was 200 µg/mL in each case.

For orientation: MIC means the lowest concentration found to suppress growth.
